Experimental data as given in PMC9234963, “Optimizing Shape Complementarity Enables the Discovery of Potent Tricyclic BCL6 Inhibitors” (Journal of Medicinal Chemistry, 2022).
Where “and” joins values, the source holds several entries; their conditions need not be identical. Equal values may be shown once. Read-outs that look alike come from different tables or passages of the source.

What was measured:
[1] = target: human BCL6 BTB domain (Homo sapiens, UniProt P41182); test: biochemical; details: for LE: ligand efficiency, 1.4*(pIC50)/HAC from TR-FRET; for LLE: lipophilic ligand efficiency from TR-FRET pIC50 and MoKa logD7.4; for BCL6 TR-FRET mean pIC50: mean of replicates
Excerpt: 6. Supplementary tables … S-17
Table S1: summary statistics and individual replicate values … S-17 […]
1. Supplementary experimental: protein production, purification and crystallography 1.1 BCL6 constructs used for assays and crystallography
A first construct of BCL6 BTB domain, which we will refer to as Trx-6His-HRV3C-BCL6, was obtained […]
3C protease cleavage site. For the TR-FRET assay, the Trx-6His-HRV3C-BCL6 protein construct was […]
used without cleaving the tag, as a 6His was needed to bind to the anti-6His-Terbium antibody. […]
For both plasmid constructs described above, transformed BL21-AI E. coli cells were grown in LB […]
carried out at 18 °C for 18 hours. Cells were harvested by centrifugation (5500 g for 30 minutes at 4 […]
oC) and stored at -80 °C.
2. Supplementary experimental: biological assay conditions
IC50 values were determined using […]
a sigmoidal four-parameter logistic fit equation.
Individual replicates shown in supplementary

[2] = PAMPA permeability; details: pH 7.4
[3] = HPLC kinetic solubility assay; format: physicochemical; details: kinetic solubility by HPLC, 10 mM phosphate-buffered saline pH 7.4, 1% DMSO
Method: 3.2 HPLC solubility assay
DMSO. Following shaking of the suspension on a Bohdan Shaker at 500 rpm for 2 hours at room […]
200 µL of the supernatant was transferred to a 2 mL Agilent vial containing 50 µL of DMSO (Sigma […]
detection using an external standard which was prepared by pipetting 10 µL of the same batch of […]
The detail of the HPLC method is as following: chromatographic separation at 30°C is carried out over a 5 minute gradient elution method from 90:10 to 10:90 water:methanol (both modified with 0.1% formic acid) at a flow rate of 1.5 mL/min. Calibration curve is prepared by injecting 0.5, 2.5, and 5 µL of compound external standard.
62.5 µL of compound solubility sample. […]

[4] = NMR kinetic solubility assay; format: physicochemical; details: kinetic solubility by NMR, HEPES buffer pH 8, 4% DMSO
Method: 3. Supplementary experimental: physicochemical assays
The plate was then sealed and incubated at room temperature for 20 hours, without shaking. The plate was centrifuged again for 1 minute at […]
spectrometer equipped with a 5 mm TCI-CryoProbe. […]
deuterated solvent. […] All NMR data were acquired at the […]
contained 16k time-domain data points. Relaxation delay was set to 20 sec. Water signal was […]
The quantification of the compound concentration was carried out using MestReNova

[5] = BCL6 TR-FRET IC50 individual replicates, single replicates, 10 nM BCL6 for early examples, else 1 nM
[6] = BCL6 TR-FRET mean pIC50, mean of replicates
[7] = BCL6 TR-FRET IC50, geometric mean of replicates
[8] = read-out: BCL6 TR-FRET IC50, geometric mean of replicates
[9] = read-out: BCL6 TR-FRET IC50 individual replicates, single replicates, 10 nM BCL6 for early examples, else 1 nM

Row | SMILES | IC50 [1, 5] | BCL6 TR-FRET mean pIC50 [1] | IC50 [1, 8] | Aq. Sol [4] | further results
1 | CNC(=O)COc1cc2cc(Nc3nc(N4C[C@H](C)C[C@H](C)C4)ncc3Cl)ccc2n(C)c1=O [BI-3802, reference compound] | 0.012 µM and 0.051 µM and 0.025 µM and 0.107 µM and 0.039 µM and 0.021 µM |  |  |  | IC50 [1, 6]: 0.0331 µM; LE [1]: 0.31; LLE [1]: 3.98
2 | CNC(=O)COc1cc2cc(Nc3nc(N4CCC(C(=O)N(C)C)CC4)ncc3Cl)cc(OC)c2n(C)c1=O [BI-3812, reference compound] | 0.003 µM |  |  |  | IC50 [1, 6]: 0.00302 µM; LE [1]: 0.31; LLE [1]: 6.76
3 | CCNc1cc(=O)[nH]c2ccc(Nc3ccnc(Cl)c3C#N)cc12 [Compound 2] |  | 5.88 | 1.31 µM and 1.3 µM |  | IC50 [1, 7]: 1.2 µM; PAMPA Pe (7.4) [2]: <0.1 × 10^–6 cm s^–1; Aq. Sol [3]: 9.7 µM
4 | CCNc1c(C)c(=O)n(C)c2ccc(Nc3ccnc(Cl)c3C#N)cc12 [Compound 4, 2-Chloro-4-((4-(ethylamino)-1,3-dimethyl-2-oxo-1,2-dihydroquinolin-6-yl)amino)nicotinonitrile] | 6.09 µM and 4.59 µM and 6.04 µM | 5.25 | 5.58 µM and 5.6 µM |  | IC50 [1, 9]: 5.57 µM and 5.76 µM
5 | N#Cc1c(Nc2ccc3[nH]c(=O)c4c(c3c2)NCCC4)ccnc1Cl [Compound 5a, 2-Chloro-4-((5-oxo-1,2,3,4,5,6-hexahydrobenzo[h][1,6]naphthyridin-9-yl)amino)nicotinonitrile] | 7.06 µM and 6.93 µM and 3.89 µM and 7.37 µM | 5.21 | 6.12 µM and 6.1 µM |  | Aq. Sol [3]: 12 µM
6 | CC1CCc2c(c3cc(Nc4ccnc(Cl)c4C#N)ccc3n(C)c2=O)N1 (stereo not shown) [Compound 5b, 2-Chloro-4-((2,6-dimethyl-5-oxo-1,2,3,4,5,6-hexahydrobenzo[h][1,6]-naphthyridin-9-yl)amino)nicotinonitrile] | 1.03 µM and 0.96 µM and 1.46 µM and 1.67 µM and 6.96 µM and 4.82 µM | 5.68 | 2.08 µM and 2.1 µM |  | Aq. Sol [3]: 1.8 µM
7 | CC1COc2c(c3cc(Nc4ccnc(Cl)c4C#N)ccc3n(C)c2=O)N1 (stereo not shown) [Compound 6, 2-Chloro-4-((2,6-dimethyl-5-oxo-2,3,5,6-tetrahydro-1H-[1,4]oxazino[2,3-c]quinolin-9-yl)amino)nicotinonitrile] | 1.11 µM and 1.39 µM and 1.53 µM | 5.88 | 1.33 µM and 1.3 µM |  | Aq. Sol [3]: 11 µM
8 | C[C@H]1COC(=O)c2c(c3cc(Nc4ccnc(Cl)c4C#N)ccc3n(C)c2=O)N1 [Compound 7, (S)-2-Chloro-4-((2,7-dimethyl-5,6-dioxo-1,2,3,5,6,7-hexahydro-[1,4]oxazepino[6,5-c]quinolin-10-yl)amino)nicotinonitrile] | 0.153 µM and 0.151 µM and 0.056 µM and 0.058 µM | 7.03 | 0.094 µM |  | IC50 [1, 9]: 0.098 µM; Papp ([2]; PAMPA): < 0.2 ×10⁻⁶ cm/s
9 | C[C@H]1COCc2c(c3cc(Nc4ccnc(Cl)c4C#N)ccc3n(C)c2=O)N1 [Compound 8, (S)-2-Chloro-4-((2,7-dimethyl-6-oxo-1,2,3,5,6,7-hexahydro-[1,4]oxazepino[6,5-c]quinolin-10-yl)amino)nicotinonitrile] | 2.35 µM | 5.65 | 2.24 µM and 2.2 µM |  | IC50 [1, 9]: 2.19 µM and 2.18 µM
10 | C[C@H]1CCOc2c(c3cc(Nc4ccnc(Cl)c4C#N)ccc3n(C)c2=O)N1 [Compound 9a, (S)-2-Chloro-4-((2,7-dimethyl-6-oxo-1,2,3,4,6,7-hexahydro-[1,4]oxazepino-[2,3-c]quinolin-10-yl)amino)nicotinonitrile] |  |  |  | 200^+ μM and 199 μM | 
11 | C[C@@H]1CCOc2c(c3cc(Nc4ccnc(Cl)c4C#N)ccc3n(C)c2=O)N1 [Compound 9b, (R)-2-Chloro-4-((2,7-dimethyl-6-oxo-1,2,3,4,6,7-hexahydro-[1,4]oxazepino-[2,3-c]quinolin-10-yl)amino)nicotinonitrile] |  |  |  | 190^+ μM | 
12 | Cn1c(=O)c2c(c3cc(Nc4ccnc(Cl)c4C#N)ccc31)NCCCO2 [Compound 10, 2-Chloro-4-((7-methyl-6-oxo-1,2,3,4,6,7-hexahydro-[1,4]oxazepino[2,3-c]quinolin-10-yl)amino)nicotinonitrile] | 15.6 µM and 22.4 µM | 4.73 | 18.7 µM and 19 µM |  | Aq. Sol [3]: 12 µM
13 | CCC1CCOc2c(c3cc(Nc4ccnc(Cl)c4C#N)ccc3n(C)c2=O)N1 (stereo not shown) [Compound 11b, 2-Chloro-4-((2-ethyl-7-methyl-6-oxo-1,2,3,4,6,7-hexahydro-[1,4]oxazepino[2,3-c]quinolin-10-yl)amino)nicotinonitrile] | 0.454 µM and 0.496 µM and 1.02 µM | 6.21 | 0.612 µM and 0.61 µM | 96 µM | 
14 | Cn1c(=O)c2c(c3cc(Nc4ccnc(Cl)c4C#N)ccc31)NC(C1CCC1)CCO2 (stereo not shown) [Compound 11c, 2-Chloro-4-((2-cyclobutyl-7-methyl-6-oxo-1,2,3,4,6,7-hexahydro-[1,4]oxazepino[2,3-c]quinolin-10-yl)amino)nicotinonitrile] | 3.57 µM and 5.26 µM | 5.37 | 4.31 µM and 4.3 µM | 26 µM | IC50 [1, 9]: 4.27 µM
15 | CC(C)C1CCOc2c(c3cc(Nc4ccnc(Cl)c4C#N)ccc3n(C)c2=O)N1 (stereo not shown) [Compound 11d, 2-Chloro-4-((2-isopropyl-7-methyl-6-oxo-1,2,3,4,6,7-hexahydro-[1,4]oxazepino[2,3-c]quinolin-10-yl)amino)nicotinonitrile] | 2.41 µM and 3.46 µM and 3.64 µM | 5.51 | 3.12 µM and 3.1 µM | 40 µM | 
16 | Cn1c(=O)c2c(c3cc(Nc4ccnc(Cl)c4C#N)ccc31)NC(C(F)F)CCO2 (stereo not shown) [Compound 11e, 2-Chloro-4-((2-(difluoromethyl)-7-methyl-6-oxo-1,2,3,4,6,7-hexahydro-[1,4]oxazepino[2,3-c]quinolin-10-yl)amino)nicotinonitrile] | 2.15 µM and 1.54 µM and 2.5 µM | 5.69 | 2.02 µM and 2 µM | 119 µM | 
17 | C[C@H]1C[C@H](C)Oc2c(c3cc(Nc4ccnc(Cl)c4C#N)ccc3n(C)c2=O)N1 [Compound 13a, 2-Chloro-4-(((2S,4S)-2,4,7-trimethyl-6-oxo-1,2,3,4,6,7-hexahydro-[1,4]oxazepino[2,3-c]quinolin-10-yl)amino)nicotinonitrile] |  |  |  | 114 µM | 
18 | CC1CC(C)(C)Oc2c(c3cc(Nc4ccnc(Cl)c4C#N)ccc3n(C)c2=O)N1 (stereo not shown) [Compound 13b, 2-Chloro-4-((2,4,4,7-tetramethyl-6-oxo-1,2,3,4,6,7-hexahydro-[1,4]oxazepino[2,3-c]quinolin-10-yl)amino)nicotinonitrile] | 8.7 µM and 16.5 µM and > 6.6 µM |  |  | 12 µM | IC50 [1, 7]: > 9.8 µM
19 | CC1Nc2c(c(=O)n(C)c3ccc(Nc4ccnc(Cl)c4C#N)cc23)OCC1(C)C (stereo not shown) [Compound 13c, 2-Chloro-4-((2,3,3,7-tetramethyl-6-oxo-1,2,3,4,6,7-hexahydro-[1,4]oxazepino[2,3-c]quinolin-10-yl)amino)nicotinonitrile] |  |  |  | 31 µM | 
20 | CC1Nc2c(c(=O)n(C)c3ccc(Nc4ccnc(Cl)c4C#N)cc23)OCC12CC2 (stereo not shown) [Compound 13d, 2-Chloro-4-((2′,7′-dimethyl-6′-oxo-1′,2′,6′,7′-tetrahydro-4′H-spiro[cyclopropane-1,3′-[1,4]oxazepino[2,3-c]quinolin]-10′-yl)amino)nicotinonitrile] | 1.07 µM and 2.07 µM and 1.87 µM | 5.8 | 1.59 µM and 1.6 µM | 126 µM | 
21 | Cn1c(=O)c2c(c3cc(Nc4ccnc(Cl)c4C#N)ccc31)N[C@H](C1CC1)C(F)(F)CO2 [Compound 14, (R)-2-Chloro-4-((2-cyclopropyl-3,3-difluoro-7-methyl-6-oxo-1,2,3,4,6,7-hexahydro-[1,4]oxazepino[2,3-c]quinolin-10-yl)amino)nicotinonitrile] | 0.615 µM and 0.397 µM | 6.31 | 0.494 µM and 0.49 µM |  | 
